In paper PMC10318143, “Optimized bisubstrate inhibitors for the actin N-terminal acetyltransferase NAA80” (Frontiers in Chemistry, 2023):
*1 amine or outer side, *2 acyl side, *3 side chain or, on linkers, in order; H or OH if unused. Where a SMILES comes first, the peptide text is derived from it. [ ]: non-standard residue; d: D form. The star is where a group is joined. Pantoyl(4-O-3'-P-ADP) = CC(C)(COP(=O)(O)OP(=O)(O)OC[C@H]1O[C@@H](n2cnc3c(N)ncnc32)[C@H](O)[C@@H]1OP(=O)(O)O)[C@@H](O)C(=O)*; NHCH2CH2SCH2CO = O=C(CSCCN[*:1])[*:2]; βAla = NCCC(=O)O

Biological target: T1, MBP-hNAA80 (Homo sapiens, UniProt Q93015)
T1 construct: made in house; host or cells: Escherichia coli BL21 star
T1 sequence (Q93015 1-286): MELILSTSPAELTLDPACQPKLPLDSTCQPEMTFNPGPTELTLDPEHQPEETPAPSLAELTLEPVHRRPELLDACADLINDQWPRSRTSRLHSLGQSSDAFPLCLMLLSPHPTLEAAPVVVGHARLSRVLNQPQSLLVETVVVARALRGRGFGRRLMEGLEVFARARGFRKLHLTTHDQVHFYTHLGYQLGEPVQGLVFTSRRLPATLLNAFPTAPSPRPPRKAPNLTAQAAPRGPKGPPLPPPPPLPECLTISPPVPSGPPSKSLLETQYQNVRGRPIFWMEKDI
Experiment: not given
Parameters: method as in Goris et al., 2018
Details: DTNB assay; ± standard deviation; ref Goris et al., 2018; cited from earlier work

**Q.** For CC[C@H](C)[C@H](NC(=O)[C@H](CC(=O)O)NC(=O)[C@H](CC(=O)O)NC(=O)[C@H](CC(=O)O)NC(=O)CSCCNC(=O)CCNC(=O)[C@H](O)C(C)(C)COP(=O)(O)OP(=O)(O)OC[C@H]1O[C@@H](n2cnc3c(N)ncnc32)[C@H](O)[C@@H]1OP(=O)(O)O)C(N)=O [CoA-DDDI-NH2, CoA-Ac-DDDI-NH2] ({Pantoyl(4-O-3'-P-ADP)-βAla}-[NHCH2CH2SCH2CO]DDDI-NH2), which IC50 is on record?
**A.** The IC50 was 0.38 ± 0.1 µM.

**Q.** For “CoA-EEEI-NH2: previously reported bisubstrate inhibitor: coenzyme A conjugated via acetyl linker to tetrapeptide amide EEEI (γ-actin N-terminus) (not fully specified; N-terminal amine acylated with acetyl linker thioether-bonded to coenzyme A sulfur (CoA-S-CH2-CO-); C-terminal amide)”, which IC50 is on record?
**A.** Its IC50 is 1.16 ± 0.11 µM.

**Q.** With “CoA-MDEL-NH2: previously reported bisubstrate inhibitor: coenzyme A conjugated via acetyl linker to tetrapeptide amide MDEL (not fully specified; N-terminal amine acylated with acetyl linker thioether-bonded to coenzyme A sulfur (CoA-S-CH2-CO-); C-terminal amide)” as the compound, how does the IC50 read?
**A.** The IC50 was 1.26 ± 0.1 µM.

Biological target: T1, MBP-hNAA80
Experiment: In vitro DTNB Nt-acetyltransferase inhibitor assay
Assay type: biochemical
Details: 300 μM Ac-CoA, 300 μM substrate peptide, Tris pH 8.5, triplicates, ± standard deviation
Protocol: The enzymatic activity of MBP-hNAA80 was measured using a 5,5′-dithiobis-(2-nitrobenzoic acid, DTNB) assay as described previously by Foyn et al. ([Foyn et al., 2017]) and Drazic et al. ([Drazic et al., 2018]) Briefly, the thiol group exposed in the enzymatic product CoA cleaves DTNB and produces 2-nitro-5-thiobenzonate (TNB^−) which ionize to TNB^2- in neutral or alkaline pH and is readily quantified by measuring the absorbance at 412 nm.
An in vitro DTNB assay with enzyme (10–600 nM), 300 μM Ac-CoA, 300 μM substrate peptide, acetylation buffer (Tris, pH 8.5), and at least nine different inhibitor concentrations ranging from 0 to 500 μM was used to calculate the IC50 value for each bisubstrate inhibitor applied in the assay. The reaction was carried out as previously described ([Drazic et al., 2018]; [Goris et al., 2018]), and within a timeframe of 15–50 min. All measurements were performed in triplicates.

**Q.** With CC[C@H](C)[C@H](NC(=O)[C@H](CCC(=O)O)NC(=O)[C@H](CC(=O)O)NC(=O)[C@H](CC(=O)O)NC(=O)CSCCNC(=O)CCNC(=O)[C@H](O)C(C)(C)COP(=O)(O)OP(=O)(O)OC[C@H]1O[C@@H](n2cnc3c(N)ncnc32)[C@H](O)[C@@H]1OP(=O)(O)O)C(N)=O [CoA-DDEI-NH2, CoA-Ac-DDEI-NH2] ({Pantoyl(4-O-3'-P-ADP)-βAla}-[NHCH2CH2SCH2CO]DDEI-NH2) as the compound, how does the IC50 read?
**A.** The IC50 was 2.67 ± 0.67 µM.

**Q.** Which IC50 does the source give for CC[C@H](C)[C@H](NC(=O)[C@H](CCC(=O)O)NC(=O)[C@H](CCC(=O)O)NC(=O)[C@H](CC(=O)O)NC(=O)CSCCNC(=O)CCNC(=O)[C@H](O)C(C)(C)COP(=O)(O)OP(=O)(O)OC[C@H]1O[C@@H](n2cnc3c(N)ncnc32)[C@H](O)[C@@H]1OP(=O)(O)O)C(N)=O [CoA-DEEI-NH2, CoA-Ac-DEEI-NH2] ({Pantoyl(4-O-3'-P-ADP)-βAla}-[NHCH2CH2SCH2CO]DEEI-NH2) here?
**A.** Its IC50 is 1.22 ± 0.33 µM.

**Q.** For CC(C)C[C@H](NC(=O)[C@H](CCC(=O)O)NC(=O)[C@H](CCC(=O)O)NC(=O)[C@H](CC(=O)O)NC(=O)CSCCNC(=O)CCNC(=O)[C@H](O)C(C)(C)COP(=O)(O)OP(=O)(O)OC[C@H]1O[C@@H](n2cnc3c(N)ncnc32)[C@H](O)[C@@H]1OP(=O)(O)O)C(N)=O [CoA-DEEL-NH2, CoA-Ac-DEEL-NH2] ({Pantoyl(4-O-3'-P-ADP)-βAla}-[NHCH2CH2SCH2CO]DEEL-NH2), which IC50 is on record?
**A.** Its IC50 is 4.73 ± 1.43 µM.

**Q.** Which IC50 does the source give for CC[C@H](C)[C@H](NC(=O)[C@H](CC(=O)O)NC(=O)[C@H](CC(=O)O)NC(=O)[C@H](CCC(=O)O)NC(=O)CSCCNC(=O)CCNC(=O)[C@H](O)C(C)(C)COP(=O)(O)OP(=O)(O)OC[C@H]1O[C@@H](n2cnc3c(N)ncnc32)[C@H](O)[C@@H]1OP(=O)(O)O)C(N)=O [CoA-EDDI-NH2, CoA-Ac-EDDI-NH2] ({Pantoyl(4-O-3'-P-ADP)-βAla}-[NHCH2CH2SCH2CO]EDDI-NH2) here?
**A.** Its IC50 is 0.12 ± 0.05 µM.

**Q.** With CC[C@H](C)[C@H](NC(=O)[C@H](CCC(=O)O)NC(=O)[C@H](CC(=O)O)NC(=O)[C@H](CCC(=O)O)NC(=O)CSCCNC(=O)CCNC(=O)[C@H](O)C(C)(C)COP(=O)(O)OP(=O)(O)OC[C@H]1O[C@@H](n2cnc3c(N)ncnc32)[C@H](O)[C@@H]1OP(=O)(O)O)C(N)=O [CoA-EDEI-NH2, CoA-Ac-EDEI-NH2] ({Pantoyl(4-O-3'-P-ADP)-βAla}-[NHCH2CH2SCH2CO]EDEI-NH2) as the compound, how does the IC50 read?
**A.** Its IC50 is 0.76 ± 0.18 µM.

**Q.** For CC(C)C[C@H](NC(=O)[C@H](CCC(=O)O)NC(=O)[C@H](CC(=O)O)NC(=O)[C@H](CCC(=O)O)NC(=O)CSCCNC(=O)CCNC(=O)[C@H](O)C(C)(C)COP(=O)(O)OP(=O)(O)OC[C@H]1O[C@@H](n2cnc3c(N)ncnc32)[C@H](O)[C@@H]1OP(=O)(O)O)C(N)=O [CoA-EDEL-NH2, CoA-Ac-EDEL-NH2] ({Pantoyl(4-O-3'-P-ADP)-βAla}-[NHCH2CH2SCH2CO]EDEL-NH2), which IC50 is on record?
**A.** Its IC50 is 0.15 ± 0.02 µM.

**Q.** With CC(C)C[C@H](NC(=O)[C@H](CCC(N)=O)NC(=O)[C@H](CC(=O)O)NC(=O)[C@H](CCC(=O)O)NC(=O)CSCCNC(=O)CCNC(=O)[C@H](O)C(C)(C)COP(=O)(O)OP(=O)(O)OC[C@H]1O[C@@H](n2cnc3c(N)ncnc32)[C@H](O)[C@@H]1OP(=O)(O)O)C(N)=O [CoA-EDQL-NH2, CoA-Ac-EDQL-NH2] ({Pantoyl(4-O-3'-P-ADP)-βAla}-[NHCH2CH2SCH2CO]EDQL-NH2) as the compound, how does the IC50 read?
**A.** The IC50 was 0.85 ± 0.05 µM.

**Q.** Which IC50 does the source give for CC[C@H](C)[C@H](NC(=O)[C@H](CC(=O)O)NC(=O)[C@H](CCC(=O)O)NC(=O)[C@H](CCC(=O)O)NC(=O)CSCCNC(=O)CCNC(=O)[C@H](O)C(C)(C)COP(=O)(O)OP(=O)(O)OC[C@H]1O[C@@H](n2cnc3c(N)ncnc32)[C@H](O)[C@@H]1OP(=O)(O)O)C(N)=O [CoA-EEDI-NH2, CoA-Ac-EEDI-NH2] ({Pantoyl(4-O-3'-P-ADP)-βAla}-[NHCH2CH2SCH2CO]EEDI-NH2) here?
**A.** The IC50 was 0.17 ± 0.04 µM.

**Q.** Which IC50 does the source give for CC(C)C[C@H](NC(=O)[C@H](CC(=O)O)NC(=O)[C@H](CCC(=O)O)NC(=O)[C@H](CCC(=O)O)NC(=O)CSCCNC(=O)CCNC(=O)[C@H](O)C(C)(C)COP(=O)(O)OP(=O)(O)OC[C@H]1O[C@@H](n2cnc3c(N)ncnc32)[C@H](O)[C@@H]1OP(=O)(O)O)C(N)=O [CoA-EEDL-NH2, CoA-Ac-EEDL-NH2] ({Pantoyl(4-O-3'-P-ADP)-βAla}-[NHCH2CH2SCH2CO]EEDL-NH2) here?
**A.** Its IC50 is 1.76 ± 0.52 µM.

**Q.** Which IC50 does the source give for CC(C)C[C@H](NC(=O)[C@H](CCC(=O)O)NC(=O)[C@H](CCC(=O)O)NC(=O)[C@H](CCC(=O)O)NC(=O)CSCCNC(=O)CCNC(=O)[C@H](O)C(C)(C)COP(=O)(O)OP(=O)(O)OC[C@H]1O[C@@H](n2cnc3c(N)ncnc32)[C@H](O)[C@@H]1OP(=O)(O)O)C(N)=O [CoA-EEEL-NH2, CoA-Ac-EEEL-NH2] ({Pantoyl(4-O-3'-P-ADP)-βAla}-[NHCH2CH2SCH2CO]EEEL-NH2) here?
**A.** Its IC50 is 1.16 ± 0.12 µM.

**Q.** With CC(C)C[C@H](NC(=O)[C@H](CCC(=O)O)NC(=O)[C@H](CO)NC(=O)[C@H](CCC(=O)O)NC(=O)CSCCNC(=O)CCNC(=O)[C@H](O)C(C)(C)COP(=O)(O)OP(=O)(O)OC[C@H]1O[C@@H](n2cnc3c(N)ncnc32)[C@H](O)[C@@H]1OP(=O)(O)O)C(N)=O [CoA-ESEL-NH2, CoA-Ac-ESEL-NH2] ({Pantoyl(4-O-3'-P-ADP)-βAla}-[NHCH2CH2SCH2CO]ESEL-NH2) as the compound, how does the IC50 read?
**A.** The IC50 was 11.5 ± 3.23 µM.

**Q.** With CC(C)C[C@H](NC(=O)[C@H](CCC(=O)O)NC(=O)[C@H](CC(=O)O)NC(=O)[C@@H]1CCCN1C(=O)CSCCNC(=O)CCNC(=O)[C@H](O)C(C)(C)COP(=O)(O)OP(=O)(O)OC[C@H]1O[C@@H](n2cnc3c(N)ncnc32)[C@H](O)[C@@H]1OP(=O)(O)O)C(N)=O [CoA-PDEL-NH2, CoA-Ac-PDEL-NH2] ({Pantoyl(4-O-3'-P-ADP)-βAla}-[NHCH2CH2SCH2CO]PDEL-NH2) as the compound, how does the IC50 read?
**A.** Its IC50 is 13.4 ± 2.24 µM.
